Measured values from patent US20230404994A1, “MARKERS OF TISSUE AGING AND USES THEREFOR” (The University of Newcastle, priority 2017, published 2023).
“Also recorded” adds a separate entry of the source.

Key:
[1] = system: serum starved placental explants; assay: Placental explant culture in serum-free medium, 4HNE / LC3B / LAMP2 immunohistochemistry; type: cell-based, human; settings: 24 hr of treatment; for disturbance in autophagosome size / disturbance in lysosomal location: serum starved placental explants; for production of 4HNE (induced by serum starvation): term placental explants, serum-free medium, 1 nM, p<0.05 (N=6)
Text: For in vitro experiments, human term placentas (38-39 weeks of gestation) were obtained from women with normal singleton pregnancies without any symptoms of labour after an elective (a scheduled repeat) caesarean section. Placentas were collected immediately after delivery and prepared for explant culture. Villous tissues of placentas were randomly sampled from different regions of placenta and 4-5 mm beneath the chorionic plate. Tissues were washed several times with Dulbecco's phosphate-buffered saline (DPBS) under sterile condition to remove excess blood.
Villous explants of ˜2 mm^3 were dissected and placed into 100×20 mm culture dishes (30 pieces/dish) containing 25 ml of Dulbecco's modified Eagle's medium (DMEM) supplemented with 2 mM L-glutamine, 1% Na-pyruvate, 1% penicillin/streptomycin (100×) solution with the addition of 10% (v/v) fetal bovine serum (FBS) and were cultured in a cell culture chamber at 37° C. temperature and maintaining 95% air (20% oxygen) and 5% CO2 for 24 hours. At day 2, villous explants were transferred to fresh 30 ml growth medium and incubated in a cell culture chamber for 90 minutes. After this the tissues were washed in DMEM without FBS (refer to as ‘serum-free medium’ or ‘growth factor deficient medium’). Next 6-7 pieces of villous tissue weighing approximately 400 mg were transferred to a culture dish (60×15 mm) containing 6 ml serum-free medium with or without the addition of pharmacological agents, for example, raloxifene (1 nM) and GPER1 agonist G1 (1 nM), for subsequent incubation up to 24 h. At the end of 24 h some tissues were fixed in 2% formaldehyde, subjected to routine histological processing and embedded in paraffin wax, and some tissues were immediately frozen in liquid nitrogen and stored at −80° C. until subsequent experiments. For each placental explant culture, samples were also collected at time ‘0 (zero)’ h i.e., before incubation in serum free medium, and were formalin fixed and stored frozen at −80° C. until further experiments.
6 μm paraffin placental sections were deparaffinised and hydrated, then heated with tris-EDTA buffer (pH 9) in a microwave oven for antigen retrieval. The sections were blocked with 1% BSA in TBST for an hour at room temperature. The sections were incubated with primary antibodies overnight and washed three times with TBST, before incubation with Alexa-conjugated secondary antibodies for 90 mins. The sections were mounted with antifade solution with DAPI. The fluorescent photographs for FIGS. 3 to 7, 9 and 11 were taken on a Nikon eclipse 90i confocal microscope. The fluorescent photographs for FIG. 10 were taken on Nikon eclipse Ti fluorescence microscope.
The present data provide clear evidence for increased lipid oxidation, disordered lysosome-autophagosome interactions and increased AOX1 expression in the post-dated and stillbirth placental syncytiotrophoblast. To determine if these events were causally linked the inventors developed a placental explant culture system using term placental tissue cultured in serum-free (growth factor deficient) medium.
The inventors sought to determine cause and effect relationships between the development of lipid oxidation observed when placental explants were cultured in the absence of serum and AOX1. The GPER agonist G-1 was used to inhibit aldehyde oxidase. The potent AOX1 inhibitor, raloxifene, was also used.

kidney = settings: Lindsey et al., 2011, Hypertension, 58: 665-671; cited from earlier work

Row | SMILES | disturbance in autophagosome size [1] | disturbance in lysosomal location [1] | production of 4HNE (induced by serum starvation) [1] | production of 4HNE in the kidney (kidney)
1 | CC(=O)c1ccc2c(c1)C1C=CCC1C(c1cc3c(cc1Br)OCO3)N2 (stereo not shown) [G1, 1-[4-(6-bromobenzo[1,3]dioxol-5yl)-3a,4,5,9b-tetrahydro-3H-cyclopenta[c]quinolin-8-yl]-ethanone] | able to block | able to block | inhibited the production of 4HNE; also recorded: significantly reduced | inhibit production of 4HNE in the kidney
2 | O=C(c1ccc(OCCN2CCCCC2)cc1)c1c(-c2ccc(O)cc2)sc2cc(O)ccc12 [raloxifene] | able to block | able to block | inhibited the production of 4HNE; also recorded: significantly reduced | –
